Data as given in US7718614B2 (Kurume University, priority 2003, dated 2010).
Several values for one entry are separate records, joined by “and”; a condition that tells them apart may be missing. Equal values may be shown once. Entries after “also recorded” stand apart in the source; their conditions may differ.

How the values were obtained:
[1] = test system: peptide-specific CTL precursors in PBMCs; assay: Peptide-specific CTL precursor assay (IFN-γ production), Example 2; format: cell-based, human; conditions: for Cellular response to peptide, 6th (mean specific IFN-γ production): post(6th)-vaccination PBMCs of the individual patient, * p ≦ 0.05, ** p ≦ 0.10 increased versus pre; for Cellular response to peptide, Pre (mean specific IFN-γ production): pre-vaccination PBMCs of the individual patient, response to HIV peptide subtracted
Protocol: Before the first vaccination and 7 days after every 6th vaccination, 30 ml of peripheral blood was obtained, and PBMCs were isolated by means of Ficoll-Conray density gradient centrifugation. Peptide-specific CTL precursors in PBMCs were detected using a previously reported culture method [24]. Briefly, PBMCs (1×10^5 cells/well) were incubated with 10 μM of each peptide in U-bottom-type 96-well microculture plates (Nunc, Roskilde, Denmark) in 200 μl of culture medium. The culture medium contained 45% RPMI-1640 medium, 45% AIM-V™ medium (Invitrogen Corp., Carlsbad, Calif.), 10% FCS, 100 U/ml of interleukin-2 (IL-2) and 0.1 mM MEM nonessential amino acid solution (Invitrogen Corp.). Half of the medium was removed and replaced with the new medium containing a corresponding peptide (20 μM) every 3 days for up to 12 days. […] The target cells (C1R-A2402 or T2, 1×10^4/well) were pulsed with each peptide (10 μM) for 2 hr, and then effector cells (1×10^5/well) were added to each well with the final volume of 200 μl. After incubation for 18 hr, the supernatants (100 μl) were collected, and the amounts of IFN-γ were measured using an enzyme-linked immuno-sorbent assay (ELISA) (limit of sensitivity: 10 pg/ml). All experiments were performed in the four different wells with duplicate assays.
All patients were vaccinated with up to 4 peptides selected from the 16 candidates by pre-vaccination measurements.

[2] = test system: peptide-specific CTL precursors in PBMCs; assay: Peptide-specific CTL precursor assay (IFN-γ production of peptide-stimulated PBMCs), Example 1; format: cell-based, human; parameters: key to Cellular response to peptide during the combination therapy, 12th / Cellular response to peptide during the combination therapy, 6th / Cellular response to peptide during the combination therapy, Pre: Ar: p* ≦ 0.1 and 500 ≦ net**; A: p ≦ 0.05 and 50 ≦ net; B: p ≦ 0.05 and 25 ≦ net < 50; C: 0.05 < p < 0.1 and 50 ≦ net; AAAA: all four wells of quadruplicate assay were positive; AAA: three wells of quadruplicate assay were positive; AA: two wells of quadruplicate assay were positive; conditions: PBMCs of the individual case; for Cellular response to peptide during the combination therapy, 6th: after 6th vaccination; for Cellular response to peptide during the combination therapy, 12th: after 12th vaccination; for Cellular response to peptide during the combination therapy, 18th: after 18th vaccination; for Cellular response to peptide during the combination therapy, Pre: before combination therapy, grade of each positive well of quadruplicate IFN-γ assay;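 as to all read-outs here: PBMCs cultured with each peptide at 10 µM, restimulated at 20 µM every 3 days up to 12 days, then 18 hr with peptide-pulsed target cells, IFN-γ by ELISA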
Protocol: Before the first vaccination and 7 days after every 6th vaccination, 30 ml of peripheral blood was obtained, and PBMCs were isolated by means of Ficoll-Conray density gradient centrifugation. Peptide-specific CTL precursors in PBMCs were detected using a previously reported culture method [24]. Briefly, PBMCs (1×10^5 cells/well) were incubated with 10 μM of each peptide in U-bottom-type 96-well microculture plates (Nunc, Roskilde, Denmark) in 200 μl of culture medium. The culture medium contained 45% RPMI-1640 medium, 45% AIM-V™ medium (Invitrogen Corp., Carlsbad, Calif.), 10% FCS, 100 U/ml of interleukin-2 (IL-2) and 0.1 mM MEM nonessential amino acid solution (Invitrogen Corp.). Half of the medium was removed and replaced with the new medium containing a corresponding peptide (20 μM) every 3 days for up to 12 days. […] The target cells (C1R-A2402 or T2, 1×10^4/well) were pulsed with each peptide (10 μM) for 2 hr, and then effector cells (1×10^5/well) were added to each well with the final volume of 200 μl. After incubation for 18 hr, the supernatants (100 μl) were collected, and the amounts of IFN-γ were measured using an enzyme-linked immuno-sorbent assay (ELISA) (limit of sensitivity: 10 pg/ml). All experiments were performed in the four different wells with duplicate assays. […] Peptides were chosen based upon evaluation of all 4 wells by the order shown above.
Peptide-specific CTL precursors in PBMCs were detected using a previously reported culture method [24], while an ELISA was used to detect the serum IgG levels specific for the peptides administrated, as reported previously [13-15]. […] Namely, PBMCs were harvested every 2 weeks and were cultured (10^4 cells/well) for 2 days in triplicate assays with 10 μl M of phytohemagglutinin (PHA), 10 ng/ml of Epstein-Bar virus (EBV)-derived peptide with HLA-A24 or -A2 binding motif, and 10 ng/ml of two different peptides under vaccination. After 2 days in culture, the amounts of IFN-γ in cell free supernatants were measured in triplicate assays, and viable cell numbers were also counted. To avoid biases in each assay, all the PBMCs were once cryopreserved and the four different PBMCs (two from healthy donors, one from patients PBMCs harvested 2 weeks before the latest vaccination, and one from the latest vaccination) were thawed at the same time in the morning of the experiment. The PBMCs from healthy donors were from the same donors throughout the series of immunological monitoring. Responses (IFN-γ production) to PHA, EBV-peptide, and the vaccinated peptides were considered to be mediated by resting T cells, memory T cells, and activated T cells, respectively.

[3] = test system: peptide-specific IgG; assay: ELISA of serum anti-peptide IgG, Example 2; format: in vivo, human; parameters: key: −: absent; +: present, low titer; ++: present, high titer; conditions: serum of the individual patient; for Anti-peptide IgG, 6th: after 6th vaccination; for Anti-peptide IgG, Pre: pre-vaccination
Protocol: Peptide-specific CTL precursors in PBMCs were detected using a previously reported culture method, while an ELISA was used to detect the serum IgG levels specific for the peptides administrated, as reported previously. In addition, a new monitoring method was conducted to carefully measure the estramustine-induced immunosuppression. Namely, PBMCs were harvested every 2 weeks and were cultured (10^4 cells/well) for 2 days in triplicate assays with […] of phytohemagglutinin (PHA), 10 ng/ml of Epstein-Bar virus (EBV)-derived peptide with HLA-A24 or -A2 binding motif, and 10 ng/ml of two different peptides under vaccination. After 2 days in culture, the amounts of IFN-γ in cell free supernatants were measured in triplicate assays, and viable cell numbers were also counted. To avoid biases in each assay, all the PBMCs were once cryopreserved and the four different PBMCs (two from healthy donors, one from patients PBMCs harvested 2 weeks before the latest vaccination, and one from the latest vaccination) were thawed at the same time in the morning of the experiment. The PBMCs from healthy donors were from the same donors throughout the series of immunological monitoring. Responses (IFN-γ production) to PHA, EBV-peptide, and the vaccinated peptides were considered to be mediated by resting T cells, memory T cells, and activated T cells, respectively.
Except for the following points, substantially the same approach was employed as Example 1.

[4] = test system: peptide-specific IgG; assay: ELISA of serum IgG specific for the administered peptides, Example 1; format: in vivo, human; parameters: key: −: absent; +: present, low titer; ++: present, high titer; conditions: serum of the individual case; for Anti-peptide IgG during the combination therapy, 6th: after 6th vaccination; for Anti-peptide IgG during the combination therapy, 12th: after 12th vaccination; for Anti-peptide IgG during the combination therapy, 18th: after 18th vaccination; for Anti-peptide IgG during the combination therapy, Pre: before combination therapy

| Sequence | Cellular response to peptide, 6th (mean specific IFN-γ production) [1] | Cellular response to peptide, Pre (mean specific IFN-γ production) [1] | Cellular response to peptide during the combination therapy, 6th [2] | Cellular response to peptide during the combination therapy, 12th [2] | Cellular response to peptide during the combination therapy, 18th [2] | Anti-peptide IgG, 6th [3] | Anti-peptide IgG, Pre [3] | Anti-peptide IgG during the combination therapy, 6th [4] | Anti-peptide IgG during the combination therapy, 12th [4] | Anti-peptide IgG during the combination therapy, 18th [4] | Anti-peptide IgG during the combination therapy, Pre [4] | Cellular response to peptide during the combination therapy, Pre [2] |
| --- | --- | --- | --- | --- | --- | --- | --- | --- | --- | --- | --- | --- |
| AYIDFEMKI [SART 3315-323] | 39.3 pg/ml and 12.8 pg/ml and 154** pg/ml and 26.5 pg/ml and 255 pg/ml | 47.8 pg/mL and 4 pg/mL and 0 pg/mL and 112.3 pg/mL and 44.8 pg/mL and 15 pg/mL | A (p ≦ 0.05 and 50 ≦ net) | Ar (p* ≦ 0.1 and 500 ≦ net**) | ArArArB | + (2×) and − (3×) | − (4×) and + (2×) | − and + | − | − | − and + |  |
| HYTNASDGL [lck208-216] | 0 pg/mL and 676 pg/mL and 58.8 pg/mL | 34.8 pg/mL and 5.8 pg/mL and 26.3 pg/mL | AA |  |  | − | − (2×) and + | − | − | − and + | − | A (p ≦ 0.05 and 50 ≦ net) |
| DYSARWNEI [SART 293-101] | 376.8 pg/ml and 162.5 pg/ml and 228.5** pg/ml | 22.8 pg/mL and 125 pg/mL and 57.3 pg/mL |  |  |  | + and − (2×) | + (2×) and − | − | − | − | − | C (0.05 < p < 0.1 and 50 ≦ net) |
| DYLRSVLEDF [lck488-497] | 99 pg/mL and 26.8 pg/mL and 26.5 pg/mL and 19.8 pg/mL | 29.8 pg/mL and 36.5 pg/mL and 31.8 pg/mL and 30.5 pg/mL | ABB |  |  | − | + (3×) and − | − (3×) and + | − (2×) and + | + (2×) and − | − | C (0.05 < p < 0.1 and 50 ≦ net) and B (p ≦ 0.05 and 25 ≦ net < 50) and ArAB |
| CYASGWGSI [PSA152] | 34.8 pg/ml and 0 pg/ml (2×) and 18.8 pg/ml and 15.5 pg/ml | 34.5 pg/mL and 39.5 pg/mL and 250 pg/mL and 49.3 pg/mL and 168.8 pg/mL |  |  |  | − (4×) and + | − (3×) and + (2×) |  |  |  |  |  |
| LYCESVHNF [PAP213] | 46.8 pg/ml and 850* pg/ml and 0 pg/ml and 186.8** pg/ml and 36.5 pg/ml and 153.5 pg/ml and 622.3* pg/ml and 9.5 pg/ml and 324.3** pg/ml and 32 pg/ml and 392.3* pg/ml | 0 pg/ml (3×) and 30.8 pg/ml and 5.8 pg/ml and 375 pg/ml and 250 pg/ml and 28.8 pg/ml and 80 pg/ml and 14.3 pg/ml and 33.8 pg/ml |  |  |  | ++ and + (5×) and − (4×) | + (6×) and − (5×) |  |  |  |  |  |
| TYSVSFDSL [PSM624] | 167 pg/mL | 100 pg/mL |  |  |  | + | + |  |  |  |  |  |
| VYDYNCHVDL [SART 3109-118] | 25 pg/ml and 27.3 pg/ml and 534** pg/ml and 170.8 pg/ml and 750** pg/ml and 610.8* pg/ml and 250 pg/ml and 496 pg/ml and 22.3 pg/ml and 0 pg/ml and 681.8 pg/ml | 14.3 pg/ml and 26 pg/ml and 12.3 pg/ml and 5.3 pg/ml and 5.5 pg/ml and 0 pg/ml (2×) and 625 pg/ml and 35.8 pg/ml and 30.3 pg/ml and 25.3 pg/ml and 2.8 pg/ml | ArA and ArArArA | B (p ≦ 0.05 and 25 ≦ net < 50); also recorded: ArArArA | ArArAA | + (8×) and ++ and − | + (11×) and − | ++ and + and − | ++ and − | ++ and + | + and − (2×) | ArAA and ArArArA |
| LIADFLSGLI [UBE2V85-93] |  |  |  | A (p ≦ 0.05 and 50 ≦ net) |  |  |  | − | + | + | − |  |
| NVLHFFNAPL [HNRPL501-510] |  |  | AAA and ArArArAr | ArArAc; also recorded: ArArAr | ArA |  |  | ++ and − (2×) and + | ++ (2×) and − | + | − (3×) and + | A (p ≦ 0.05 and 50 ≦ net) and ArAr |
| EYRGFTQDF [SART1 690] | 0 pg/mL and 81.8 pg/mL and 35 pg/mL | 0 pg/mL and 250 pg/mL and 449 pg/mL |  |  |  | + (2×) and − | + and − (2×) |  |  |  |  |  |
| TFDYLRSVL [lck486] | 58.5 pg/mL | 375 pg/mL |  |  |  | + | − |  |  |  |  |  |
| KLVERLGAA [lck246-254] |  |  | A (p ≦ 0.05 and 50 ≦ net) | B (p ≦ 0.05 and 25 ≦ net < 50) (2×) and ArAA | ArAAA |  |  | ++ (4×) and − | ++ (4×) and − | − | ++ (3×) and − (2×) | A (p ≦ 0.05 and 50 ≦ net) and ArC |
| HYRKWIKDTI [PSA248] | 100 pg/ml and 505.8 pg/ml and 303.5 pg/ml and 149.8 pg/ml and 0 pg/ml (4×) and 9.3 pg/ml and 21.3 pg/ml and 38.8 pg/ml and 243.5 pg/ml and 9.8 pg/ml | 19.5 pg/ml and 28.3 pg/ml and 12.8 pg/ml and 14.3 pg/ml and 6.5 pg/ml and 18.5 pg/ml and 0 pg/ml (2×) and 375 pg/ml and 17 pg/ml and 250 pg/ml and 18 pg/ml and 32.8 pg/ml and 23.8 pg/ml |  |  |  | + (8×) and ++ (4×) | + (12×) and − (2×) |  |  |  |  |  |
| RIIYDRKFL [EIF4EBP151-59] |  |  |  | A (p ≦ 0.05 and 50 ≦ net) | B (p ≦ 0.05 and 25 ≦ net < 50) |  |  | − and ++ | − and ++ | + | − and + |  |
| EYCLKFTKL [ART 1170-179] |  |  | C (0.05 < p < 0.1 and 50 ≦ net); also recorded: A (p ≦ 0.05 and 50 ≦ net) | AAA | A (p ≦ 0.05 and 50 ≦ net) |  |  | ++ | ++ | ++ | ++ | A (p ≦ 0.05 and 50 ≦ net) |
| ALVEFEDVL [HNRPL140-148] |  |  |  | ArArArA |  |  |  | ++ | + |  | − | AAC |
| DFMIQGGDF [CyB91-99] |  |  | C (0.05 < p < 0.1 and 50 ≦ net) |  |  |  |  | − |  |  | − |  |
